{"source": "patent US5610185A", "about": "“Method for the treatment of hyperproliferative epithelial skin diseases by topical application of hydroxylated aromatic protein cross-linking compounds” (The United States of America as represented by the …, priority 1995, dated 1997)", "key": {"[1]": {"test_system": "308 cells (benign neoplastic mouse keratinocytes)", "experiment": "Cornified envelope (cross-linked protein) assay, 308 cells", "assay_type": "cell-based", "settings": "308 (papilloma), 48 h, 0.1-1 mM", "description": "(§1) FIG. 1. MC Increases Cross-linked Protein in Epidermal Cell Lines. Black squares represent HPV 18 human epithelial keratinocytes; black circles represent SV 40 infected human keratinocytes; black triangles represent (SQCC-Y1) cells; white triangles represent (SP-1) benign tumor mouse keratinocytes; white squares represent (308 cells) benign mouse keratinocytes; and white circles represent (I-7) cells mouse squamous cell carcinoma.\n(§2) Primary mouse keratinocytes were isolated from BALB/c newborn mouse skin. Primary keratinocytes, the benign neoplastic keratinocyte cell lines 308 and SP-1 (Strickland et al, Cancer Res., 48, 165-169, 1988) and the mouse squamous cell carcinoma line 1-7 (Greenhalgh et al., Proc. Natl. Acad. Sci., 87, 643-647, 1990) were grown in Eagle's minimal essential medium with 8% fetal calf serum (FCS) (chelexed) and penicillin 20 iu/ml, streptomycin 20 ug/ml (P/S). Unless otherwise indicated, the Ca^2+ concentration in medium was adjusted to 0.05 mM (Hennings et al., Cells, 19, 245-254, 1980). […]\n(§3) Cells were incubated with MC for 48 hours, then cross-linked protein was isolated and measured as described in Example 1.\n(§4) The assay measures insoluble cross-linked protein envelopes as described (Hough-Monroe et al. Analytical biochem., 199, 25-28, 1991), with modifications as follows. […] Absorbance of eluate was measured on a Titertek plate reader at 600 nm."}, "[2]": {"test_system": "I-7 mouse squamous cell carcinoma cells", "experiment": "Cornified envelope (cross-linked protein) assay, I-7 cells", "assay_type": "cell-based", "settings": "I-7 (carcinoma), 48 h, 0.1-1 mM", "description": "as §1, §2, §3, §4"}, "[3]": {"test_system": "SQCC-Y1 human squamous carcinoma cells", "experiment": "Cornified envelope (cross-linked protein) assay, SQCC-Y1 cells", "assay_type": "cell-based", "settings": "SQCC-Y1, 48 h, 0.1-1 mM"}, "[4]": {"test_system": "HPV 18 infected human keratinocytes", "experiment": "Cornified envelope (cross-linked protein) assay, HPV 18 infected keratinocytes", "assay_type": "cell-based", "settings": "48 h, 0.1-1 mM", "description": "as §1, §2, §3, §4"}, "[5]": {"test_system": "SV 40 infected human keratinocytes", "experiment": "Cornified envelope (cross-linked protein) assay, SV 40 infected keratinocytes", "assay_type": "cell-based", "settings": "48 h, 0.1-1 mM", "description": "as §1, §2, §3, §4"}, "NIH 3T3 fibroblasts": {"test_system": "NIH 3T3 fibroblasts", "experiment": "Protein envelope formation in NIH 3T3 fibroblasts", "assay_type": "cell-based"}, "[6]": {"test_system": "primary mouse keratinocytes", "experiment": "Growth inhibition (cell count), primary mouse keratinocytes", "assay_type": "cell-based", "settings": "Keratinocyte, 72 h, 25 μM MC, 3 days, read-out: cells that continued to grow", "experimental": "FIG. 4. Cross-linked Protein Production vs Growth Inhibition in Mouse Primary Keratinocytes. Cell growth is represented by black squares and cross-linked protein production by white squares. Results are ±SD (n=3) of one experiment, representative of three.\nCells were seeded at low density and were treated with MC for 3 days. Cells were then counted and increase in cell number was compared to untreated controls, or cells were processed for cross-linked protein. (FIG. 4) Protein cross-linking was rapid, commencing within 4 hours at 1 mM in mouse primary keratinocytes, (FIG. 3A) and was accompanied by cell death, as measured by the MTT assay (FIG. 3B)."}, "[7]": {"test_system": "A431 human epidermoid carcinoma cells", "experiment": "Growth inhibition (cell count), A431 cells", "assay_type": "cell-based", "settings": "75 μM MC, 3 days", "experimental": "FIG. 5. Cross-linked Protein Production vs Growth Inhibition in A431 ([…]) Cells. Cell growth is represented by black circles and crosslinked protein production by white circles. Results are ±SD (n=3) of one experiment, representative of three.\nCells were seeded at low density and were treated with MC for 3 days. Cells were then counted and increase in cell number was compared to untreated controls, or cells were processed for cross-linked protein (FIG. 5)."}, "EGF receptor": {"test_system": "EGF receptor", "experiment": "Western blot analysis of in vitro assay with EGF receptor", "assay_type": "biochemical"}, "[8]": {"test_system": "SP-1 cell tumors grafted on athymic nude mice", "experiment": "Grafted SP-1 cell tumor formation in nude mice", "assay_type": "in vivo, mouse", "settings": "topical MC, 1 mM and 100 mM; twice weekly for two weeks or 5 days each week for three weeks", "experimental": "FIGS. 10A and 10B. […] Numbers above bars denote the number of animals with tumors/the number of animals in the group. In panel A, MC was applied twice weekly for two weeks. In panel B, MC was applied on 5 days each week for three weeks.\nSkin grafting was performed on athymic nude mice using 0.5×10^6 SP-1 cells with 8×10^6 newborn SENCAR mouse dermal fibroblasts as described (Strickland et al., Carcinogenesis, 14, 205, 1993). Domes (plastic covers placed over the site of skin grafting) were removed one week after grafting, and after a further week, topical application of MC commenced. The agent was applied in 25 ul 90% acetone, 10% DMSO vehicle. Weekly, tumor measurements were recorded up to 5 weeks after grafting.\nGrafting was performed as described above. Tumors were measured using calipers at the termination of the experiment and tumors were fixed and sections were taken to confirm the tumor phenotype by microscopy."}, "[9]": {"settings": "Hori et al., J. Antibiot., 45, 280-282, 1992; cited from earlier work"}}, "note": "Entries after “also recorded” stand apart in the source; their conditions may differ.", "data": [{"smiles": "COC(=O)C=Cc1cc(O)ccc1O", "note": "[MC, methyl 2,5-dihydroxycinnamate]", "values": [{"measurement": "cross-linked protein (envelope production)", "setting": "[1]", "result": "induced crosslinked envelope production; also recorded: increased cross-linked protein in a dose-dependent manner"}, {"measurement": "cross-linked protein (envelope production)", "setting": "[2]", "result": "induced crosslinked envelope production; also recorded: increased cross-linked protein in a dose-dependent manner"}, {"measurement": "cross-linked protein (envelope production)", "setting": "[3]", "result": "induced crosslinked envelope production; also recorded: increased cross-linked protein in a dose-dependent manner"}, {"measurement": "cross-linked protein (envelope production)", "setting": "[4]", "result": "induced crosslinked envelope production; also recorded: increased cross-linked protein in a dose-dependent manner"}, {"measurement": "cross-linked protein (envelope production)", "setting": "[5]", "result": "induced crosslinked envelope production; also recorded: increased cross-linked protein in a dose-dependent manner"}, {"measurement": "effect of DTT on cross-linking by MC", "setting": "NIH 3T3 fibroblasts; 3T3 cells, simultaneous DTT 20 mM, 37° and 4° C.", "result": "prevented cross-linking"}, {"measurement": "protein envelopes induced in NIH 3T3 fibroblasts", "setting": "NIH 3T3 fibroblasts; even when incubated at 4° C. in phosphate buffered saline", "result": "induced protein envelopes"}, {"measurement": "activity at 25 µM", "setting": "[6]", "result": 20, "unit": "%"}, {"measurement": "inhibition of cell growth", "setting": "[7]", "result": "inhibited cell growth significantly"}, {"measurement": "MC-induced mobility retardation of the EGF receptor, effect of DTT", "setting": "EGF receptor; DTT, Western blot", "result": "did inhibit MC-induced mobility retardation of the EGF receptor"}, {"measurement": "tyrosine kinase inhibition in presence of DTT", "setting": "EGF receptor; effect of DTT on MC tyrosine kinase inhibition, in vitro", "result": "did not prevent tyrosine kinase inhibition"}, {"measurement": "growth / formation of grafted SP-1 tumors", "setting": "[8]", "result": "inhibited the growth of tumors; also recorded: inhibits Grafted SP-1 cell Tumor Formation; also recorded: inhibit tumor formation"}, {"measurement": "half life in serum", "setting": "[9]", "result": "short"}]}]}
